The source of these data is patent US20250171762A1, “THERAPEUTICAL PEPTIDOMIMETIC” (UNIVERSITA' DEGLI STUDI DI ROMA "LA SAPIENZA", priority 2021, published 2025).

Entries after “also recorded” stand apart in the source; their conditions may differ. Non-standard residues stand in square brackets, D forms with d. Residues, ends and D or L forms follow the SMILES beside them. No end group written: not given here.

Data set [1] has as its system m·3243A>G mt-tRNA^Leu(UUR) mutant cybrids. Put plainly: Cell viability, Trypan blue dye exclusion, galactose vs glucose medium. The class given is cell-based, human. The note with it: 5 μM, galactose medium, 24 hours. On the procedure: For viability assessment, cells were plated in either glucose or galactose medium. The reason for this is that a viability phenotype can be appreciated in cells growing on galactose, which forces cells to rely on mitochondrial respiration, but not in cells growing on glucose. After 24 hours incubation, the number of viable cells in the galactose medium was normalized to the number of viable cells in glucose at the same time point, which represents the normal growth condition. Data are compared with the value of mutant cells incubated with vehicle only. Mean±SEM of at least three independent experiments is shown.
For viability assessment, cells were plated in either glucose or galactose medium. The reason for this is that a viability phenotype can be appreciated in cells growing on galactose, which forces cells to rely on mitochondrial respiration, but not in cells growing on glucose. After 24 hours incubation the number of viable cells in galactose medium was normalized to the number of viable cells in glucose (that represents the normal growth condition) at the same time point. Data are compared with the value of mutant cells incubated with vehicle only. Means±SEM of at least two independent experiments are shown.
Previously established osteosarcoma derived (143B.TK-) cybrid cell lines from patients, which bear either the m·3243A>G mutation in mt-tRNA^Leu(UUR) or the m·8344A>G mutation in mt-tRNA^Lys, and controls were used (generous gift from Dr Valeria Tiranti and Dr Valerio Carelli).
Cybrid cells were cultured in Dulbecco's modified Eagle's medium (DMEM), supplemented with 4.5 g/l d-glucose, 10% foetal bovine serum (FBS), 2 mM I-glutamine, 50 μg/ML uridine, 100 U/mL penicillin, and […] (referred to as glucose medium) in a humidified atmosphere of 95% air and 5% CO2 at 37° C. For cell viability experiments, cells were grown either in glucose medium or in glucose-free DMEM, supplemented with 5 mM galactose, […] sodium pyruvate, and 10% FBS (referred to as galactose medium). The reason for using the latter medium is that a pathological phenotype can be appreciated in cells growing on galactose, which forces cells to rely on mitochondrial respiration, but not in cells growing on glucose.
[…] Cells were switched in glucose or galactose and after 24 hours cell viability was measured by the Trypan blue dye exclusion assay. Cells were harvested with 0.25% trypsin and 0.2% EDTA, washed, suspended in PBS in the presence of Trypan blue solution (Sigma-Aldrich) at 1:1 ratio and counted using a hemocytometer. The number of viable cells in galactose medium was expressed as a percentage of the number of cells in glucose medium.
To evaluate the effect of the compounds on viability, cybrids were grown in glucose-free medium supplemented with galactose (galactose medium), a condition that both forces cells to rely on the mt respiratory chain for ATP synthesis and causes a significant growth reduction in the presence of mutations.
To evaluate the effect of PMT and M-PMT on viability, cybrids were grown in glucose-free medium supplemented with galactose (galactose medium), a condition that both forces cells to rely on the mt respiratory chain for ATP synthesis and causes a significant growth reduction in the presence of mutations.

Data set [2] in a line: Plasma stability: incubation in human plasma, UPLC-MS quantification. It counts as in vitro ADME. The note with it: for plasma stability compared with another peptide: human plasma, FIG. 4; for degradation in human plasma: no time stated. On the procedure: Panel B. Time course decay of β32_33, PMT, PMT-8a and PMT-8b incubated up to 72 h with human plasma from four healthy subjects. […] The Y axis indicates the signal intensity of the four peptides. Samples of plasma were obtained from healthy volunteers and immediately used for the analysis. Either β32_33 peptide or PMT for the experiment in panel A, and β32_33 peptide, PMT, PMT-8a or PMT-8b for the experiment in panel B, was incubated in plasma at a final concentration of 0.2 mM, at 37° C., up to 3 h (A) or 72 h (B). At the indicated time points, i.e., T0 and 3 h (A) or T0, 1.5, 3, 6 and 72 h (B), aliquots of 200 μL were treated with 3 volumes of acetonitrile containing 1% formic acid and extracted by a solid phase extraction system to remove proteins and phospholipids. Samples were dried under vacuum, resuspended in 100 μL of 0.1% formic acid containing 5% acetonitrile, and analyzed with a Water Acquity H-Class UPLC system equipped with a single-quadruple mass detector with electrospray ionization source. Samples were separated onto a reverse phase C18 column by performing a gradient with two mobile phases consisting of 0.1% formic acid in water and 0.1% formic acid in acetonitrile at a flow rate of 0.5 mL/min. Quantification was performed by Selected lon Recording (SIR): at m/z=917.88, corresponding to the [M+2 H]^2+ion obtained from either β32_33 or PMT; at m/z=961.42, corresponding to the [M+H]^+ion obtained from PMT-8a; and at m/z=869.48, corresponding to the [M+H]^+ion obtained from PMT-8b.
In order to evaluate whether compounds (βp and d-βp) are stable in blood or hydrolyzed by plasma peptidases, we set up a chromatographic assay to evaluate compound concentration after incubation in human plasma.
Blood was drawn by venipuncture in vacutainer containing EDTA as an anticoagulant.
Two different samples from healthy volunteers were used. Plasma was separated by centrifugation and immediately used for the experiments. Each compound was dissolved in 500 uL plasma at a final concentration of 0.2 mM, and split into two aliquots, one of which was immediately analyzed to assess the basal compound level; the other was incubated at 37° C. for 3 hours under gentle shaking. In order to perform chromatographic analysis the samples were treated with 3 volumes of acetonitrile containing 1% formic acid, and then extracted by using the Ostro™ pass-through sample preparation system to remove proteins and phospholipids. Samples were dried under vacuum and then resuspended in 100 uL of 0.1% formic acid containing 5% acetonitrile, then directly injected onto the chromatographic column.
Chromatographic analyses were performed on a Water Acquity H-Class UPLC system (Waters, Milford, MA, USA), including a quaternary solvent manager (QSM), a sample manager with a flow through needle system (FTN), a photodiode array detector (PDA) and a single-quadruple mass detector with electrospray ionization source (ACQUITY QDa). Analyses were performed on a reverse phase C18 column (75 mm×3.2 mm i.d., 2.5 μm particle size). The mobile phase was solvent A, 0.1% formic acid in water, and solvent B, 0.1% formic acid in acetonitrile. The flow rate was 0.5 mL/min, the column temperature was set at 25° C. and the elution was performed by linearly increasing the concentration of solvent B up to 70% in 7 minutes. Mass spectrometric detection was performed in the positive electrospray ionization mode, using nitrogen as the nebulizer gas. Analyses were performed in the Total lon Current (TIC) mode with a mass range of 100-1200 m/z. The capillary voltage was 0.8 kV, cone voltage 8 V, ion source temperature 120° C. and probe temperature 600° C. Quantification of each compound was performed by Selected lon Recording (SIR) at m/z 917.88, corresponding to the […]

The subject of data set [3] is cybrids bearing the m·3243A>G mutation in mt-tRNA^Leu(UUR). In words: Fluorescence confocal microscopy of Cy5-linked constructs, uptake and mitochondrial co-localization. The note with it: 0.25 μM, 24 hours, Mitotracker Red. It counts as cell-based, human. The text has this: Top row (constructs): exogenously administered constructs covalently linked to a fluorescent dye (Cy5) are localized within cells.
Middle row (Mitotracker red): mitochondria within the same cells shown in the top row are highlighted by Mitotracker red, a dye able to link specifically and exclusively to mitochondria.
The cells used for the experiments are trans-mitochondrial hybrids (hereafter named cybrids) bearing the m·3243A>G mutation in mt-tRNA^Leu(UUR), which is associated with the MELAS syndrome.
Cells were incubated for 24 hours with 0.25 μM of constructs. Half an hour before imaging, cells were stained with Mitotracker Red. Finally, fluorescence signals were detected with a laser scanning confocal microscope. PCC: Pearson's Correlation Coefficient (mean±SEM of six images).
Constructs made of compounds listed in Table 1 linked to the Cy5 fluorophore via maleimide cross-linker, were administered to sub-confluent cybrid cell cultures at 0.25 μM in glucose medium. […] The fluorescence images were analyzed with the ImageJ software (14, https://imagej.nih.gov/ij/, 1997-2018) to determine the Pearson's correlation coefficient.
The uptake and localization of Cy5-conjugated constructs in cybrids was assessed by flow cytometry, confocal microscopy, and immunoblot analysis on isolated mitochondria (FIG. 1). […]

In data set [4] the test system is m·3243A>G mutant cybrids, m·8344A>G mutant cybrids and healthy control cells. Put plainly: Mitochondrial ToxGlo Assay (cyto- and mitotoxicity). On the procedure: Images show the effect of increasing PMT concentrations on healthy and mutant cells, compared with the effect of a cytotoxic (C1) and a mitotoxic (C2) agent, evaluated using the Mitochondrial ToxGlo™ Assay.
The X and Y axis show the compounds incubated with cells and the ratio between fluorescent and luminescent signal, respectively. In this assay, fluorescence increase indicates a decrease in cell membrane integrity, and luminescence decrease indicates a decrease in cellular ATP levels. […] The horizontal black line represents fluorescence/luminescence signal ratio of untreated cells. WT: wild type; 3243: cells bearing the mutation m·3243A>G in mt-tRNA^Leu(UUR); L-8344 and H-8344: cells bearing low and high load of mutation m·8344A>G in mt-tRNA^Lys.
Cybrids were plated on a 96-well plate in normal growth conditions (i.e., glucose medium) and treated with different PMT concentrations. […] Fluorescence and luminescence were measured with a GloMax Multi+Luminometer. […]
Mitochondrial toxicity exerted by PMT was measured using the Mitochondrial ToxGlo™ Assay (Promega Italia Srl., Milano, Italy) according to the manufacturer's protocol. […] Subsequently, cells were incubated with specific reagents and fluorescence or luminescence were measured with a GloMax Multi+Luminometer (Promega Italia Srl., Milano, Italy).

Regarding `CC[C@@H](C)[C@@H](NC(=O)[C@@H](CC(C)C)NC(=O)[C@@H](C)NC(=O)[C@H](NC(=O)[C@@H](CCCNC(=N)N)NC(=O)[C@H]1CCCN1C(=O)[C@@H](CO)NC(=O)[C@H](N)CC(C)C)[C@H](C)O)C(=O)O` [PMT-8b, d(L)d(S)d(P)d(R)d(T)d(A)d(L)d(I)] (H-[dL][dS][dP][dR][dT][dA][dL][dI]-OH; N-terminus and C-terminus assumed), the “viability of mutant cybrids vs non treated mutant cells” value in data set [1] was “significantly improved”. Besides, in data set [2], the “plasma stability compared with another peptide” value is given as “even more stable than the full-length 16-residue long PMT; also recorded: slower degradation than the β32_33 peptide” and the “degradation in human plasma” value is given as “does not undergo degradation at all”. Moreover, in data set [2] (human, human plasma from healthy volunteers, second experiment, plasma of four healthy volunteers, 72 h, read-out: peptide present after incubation in plasma), the remaining at 72 h, 0.2 mM was determined as 80%. The “penetration of cell membranes and co-localization with mitochondria” value in data set [3] is “Penetrate Cell Membranes and Co-Localize with Mitochondria”.
Turning to `[N-]=[N+]=[N-]` [sodium azide, reference compound], the “effect on fluorescence and luminescence (positive controls)” value in data set [4] (400 μg/ml digitonin (C1) or 100 μl sodium azide (C2), three hours) was “a decrease in luminescence and has no effect on fluorescence”.
With “d(K)d(K)d(S)d(F)d(L)d(S)d(P)d(R) ([dK][dK][dS][dF][dL][dS][dP][dR]) [PMT-8a, PMT fragment comprising PMT residues 1-8]”, the cyto- and mito-toxicity result in data set [4] (5, 10, 20 μM (up to 20 μM), mutant and wild-type cells) is “neither cytotoxic nor mitotoxic”. Moreover, in data set [2], the “plasma stability compared with another peptide” value is listed as “even more stable than the full-length 16-residue long PMT; also recorded: slower degradation than the β32_33 peptide” and the “degradation in human plasma” value is “does not undergo degradation at all”. In addition, the “detectable degradation in plasma” value in data set [2] (second experiment, plasma of four healthy volunteers, up to 72 h) was “did not undergo detectable degradation”. Moreover, in data set [3], the “penetration of cell membranes and co-localization with mitochondria” value was “Penetrate Cell Membranes and Co-Localize with Mitochondria”.
